Source: PMC10815991, “Membrane-Bound Redox Enzyme Cytochrome bd-I Promotes Carbon Monoxide-Resistant Escherichia coli Growth and Respiration” (International Journal of Molecular Sciences, 2024)
Where two headings read alike, the source gives them in different places.

What was measured:
Type in all cases: cell-based
[1] = biological target: T1, cytochrome bd-I (bd-I-only E. coli cells) (Escherichia coli, UniProt P0ABJ9); experiment: O2 consumption (aerobic respiration) of bd-I-only E. coli cell suspensions
T1 construct: the oxidases were in vivo conditions, i.e., integrated into native bacterial membranes; endogenous in cells; host or cells: E. coli TBE037 (MG1655 ΔappB nuoB cyoB::kan); whole cells (A1) or membranes isolated from them (A5)
Experimental: (§1) The CO and N2 gases were purchased from Linde (Danbury, CT, USA) and Air Liquide (Air Liquide Italia Spa, Milano, Italy), respectively. Other chemicals were purchased from Merck KGaA (Darmstadt, Germany). A stock solution of CO or N2 was prepared by equilibrating degassed water with the pure gas at 1 atm and room temperature, yielding 1 mM CO and 0.7 mM N2 in solution. E. coli respiratory mutant strains TBE025 (MG1655 ΔcydB nuoB appB::kan), TBE026 (MG1655 ΔcydB nuoB cyoB::kan), and TBE037 (MG1655 ΔappB nuoB cyoB::kan), which respectively express cytochrome bo3, cytochrome bd-II, or cytochrome bd-I as the sole terminal oxidase, were used. E. coli cultures were grown in Luria–Bertani (LB) medium supplemented with 30 μg/mL kanamycin, at 37 °C and 200 rpm. In the case of growth studies, after inoculation at an OD600 of 0.15 ± 0.03, the cells were grown in 50 mL rubber-stoppered flasks in 16 mL of air-equilibrated LB at 37 °C for 60 min; when OD600 reached 0.4 ± 0.08, they were bubbled for 30 s with either CO (pure gas at 1 atm and room temperature) or N2 (pure gas at 1 atm and room temperature) as a control to yield a final concentration of both gases of ~20%. The gas percentage was assessed by taking into account the different O2 concentrations, present in equal volumes of LB equilibrated with air or flushed with CO/N2 for 30 s, and calculated according to the following equation: Gas % = ([O2] air equilibrated − [O2] gas flushed)/[O2] air equilibrated × 100. [O2] air equilibrated and [O2] gas flushed are the O2 concentration values measured in the degassed chamber of a high-resolution respirometer (Oxygraph-2k, Oroboros Instruments GmbH, Innsbruck, Austria) of non-fluxed and fluxed E. coli cultures with CO or N2, respectively. The growth of the E. coli cultures was then monitored via a standard method using optical density measurements in an Eppendorf BioSpectrometer basic at 600 nm every 30 min. When the OD600 was above 1, cultures were diluted before reading.
Oxygraphic measurements were performed at 25 °C in 50 mM K/phosphate pH 7.0, using a high-resolution respirometer (Oxygraph-2k, Oroboros Instruments GmbH, Innsbruck, Austria) equipped with two 1.5-mL chambers. […] In the case of isolated membranes, O2 consumption was measured in the presence of 2.5 mM dithiothreitol (DTT) and 2.5 μM 2,3-dimethoxy-5-methyl-6-(3-methyl-2-butenyl)-1,4-benzoquinone (Q1), an artificial reducing couple specific for quinol oxidases. The catalytic O2-consuming activity was obtained by subtracting the non-enzymatic O2 consumption (Q1/DTT autoxidation in the absence of the membranes) from the O2 consumption rate measured after the addition of membranes.
UV–visible absorption spectra were recorded to estimate the amount of each terminal oxidase present in cell suspensions. […]

[2] = biological target: T2, cytochrome bd-II (bd-II-only E. coli cells) (Escherichia coli, UniProt P26459); experiment: O2 consumption (aerobic respiration) of bd-II-only E. coli cell suspensions; settings: for IC50: read-out: apparent IC50
T2 construct: the oxidases were in vivo conditions, i.e., integrated into native bacterial membranes; endogenous in cells; host or cells: E. coli TBE026 (MG1655 ΔcydB nuoB cyoB::kan); whole cells (A2) or membranes isolated from them (A6)
Experimental: as §1
(§2) Oxygraphic measurements were performed at 25 °C in 50 mM K/phosphate pH 7.0, using a high-resolution respirometer (Oxygraph-2k, Oroboros Instruments GmbH, Innsbruck, Austria) equipped with two 1.5-mL chambers. The O2 consumption of E. coli cells was followed with endogenous reductants. In the case of isolated membranes, O2 consumption was measured in the presence of 2.5 mM dithiothreitol (DTT) and 2.5 μM 2,3-dimethoxy-5-methyl-6-(3-methyl-2-butenyl)-1,4-benzoquinone (Q1), an artificial reducing couple specific for quinol oxidases. The catalytic O2-consuming activity was obtained by subtracting the non-enzymatic O2 consumption (Q1/DTT autoxidation in the absence of the membranes) from the O2 consumption rate measured after the addition of membranes.
(§3) UV–visible absorption spectra were recorded to estimate the amount of each terminal oxidase present in cell suspensions. For this purpose, an Agilent Cary 60 UV-Vis or a Varian Cary 300 Bio UV-Visible spectrophotometer was used.
(§4) Data analysis was carried out using software packages Origin v7.0 (OriginLab Corporation, Northampton, MA, USA) and GIM (Scientific Graphic Interactive Management System developed by A.L. Drachev in Lomonosov Moscow State University). The percentage inhibition of O2 consumption of cell suspensions (i%) was calculated using the equation i% = ((V0 − V0,i)/V0)·100, where V0 and V0,i are the initial rates in the absence and in the presence of the inhibitor (CO), respectively. The apparent IC50 values of cytochromes bd-II and bo3 for CO were estimated by plotting i% as a function of CO concentration added ([CO]0). The data were fitted to the standard hyperbolic equation i% = imax%·[CO]0/(IC50 + [CO]0) using a built-in approximation function (‘Hyperbola function’) in ‘Advanced Fitting tool’ in the Origin program. The imax% parameter is a theoretical maximum percent inhibition. […]

[3] = biological target: T3, cytochrome bo3 (bo3-only E. coli cells) (Escherichia coli, UniProt P0ABI8); experiment: O2 consumption (aerobic respiration) of bo3-only E. coli cell suspensions
T3 construct: the oxidases were in vivo conditions, i.e., integrated into native bacterial membranes; endogenous in cells; host or cells: E. coli TBE025 (MG1655 ΔcydB nuoB appB::kan); whole cells (A3) or membranes isolated from them (A7)
Experimental: as §1, §2, §3, §4

[4] = 196.3 μM CO added at [O2] = 50 μM
[5] = 196.3 μM CO added at [O2] = 100 μM
[6] = 196.3 μM CO added at [O2] = 200 μM

T3 sequence (P0ABI8 whole entry): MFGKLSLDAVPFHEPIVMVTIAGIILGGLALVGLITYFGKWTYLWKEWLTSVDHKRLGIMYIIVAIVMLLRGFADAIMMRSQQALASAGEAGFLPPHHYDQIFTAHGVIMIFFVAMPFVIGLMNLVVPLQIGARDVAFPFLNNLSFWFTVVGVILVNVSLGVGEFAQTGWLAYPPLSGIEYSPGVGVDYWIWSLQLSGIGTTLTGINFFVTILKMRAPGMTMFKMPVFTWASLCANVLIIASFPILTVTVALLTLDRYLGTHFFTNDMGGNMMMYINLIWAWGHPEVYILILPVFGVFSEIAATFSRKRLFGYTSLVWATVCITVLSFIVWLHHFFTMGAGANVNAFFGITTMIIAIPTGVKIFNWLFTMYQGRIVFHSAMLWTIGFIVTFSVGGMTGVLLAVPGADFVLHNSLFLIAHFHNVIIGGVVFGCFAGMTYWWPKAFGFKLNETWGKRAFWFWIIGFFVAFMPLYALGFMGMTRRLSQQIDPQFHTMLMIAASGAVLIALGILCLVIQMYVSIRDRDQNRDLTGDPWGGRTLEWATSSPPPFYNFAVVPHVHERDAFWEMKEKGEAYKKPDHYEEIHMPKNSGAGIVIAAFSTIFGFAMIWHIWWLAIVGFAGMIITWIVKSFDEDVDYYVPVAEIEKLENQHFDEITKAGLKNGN
T3 sequence (P0ABJ1 25-315 partner): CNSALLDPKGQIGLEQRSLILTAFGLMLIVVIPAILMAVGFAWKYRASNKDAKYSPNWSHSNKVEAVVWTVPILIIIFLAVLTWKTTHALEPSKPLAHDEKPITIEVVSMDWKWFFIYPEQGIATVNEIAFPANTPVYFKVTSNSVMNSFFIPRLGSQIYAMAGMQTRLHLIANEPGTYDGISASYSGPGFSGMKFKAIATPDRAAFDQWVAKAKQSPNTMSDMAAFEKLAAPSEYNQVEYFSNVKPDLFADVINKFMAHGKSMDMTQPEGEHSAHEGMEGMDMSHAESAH
T3 sequence (P0ABJ3 whole entry partner): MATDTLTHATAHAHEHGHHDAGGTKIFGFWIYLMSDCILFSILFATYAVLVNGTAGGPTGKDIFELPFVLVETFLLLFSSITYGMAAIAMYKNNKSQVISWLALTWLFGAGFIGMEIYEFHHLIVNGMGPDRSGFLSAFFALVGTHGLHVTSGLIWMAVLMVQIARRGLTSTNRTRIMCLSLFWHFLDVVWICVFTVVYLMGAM
T3 sequence (P0ABJ6 whole entry partner): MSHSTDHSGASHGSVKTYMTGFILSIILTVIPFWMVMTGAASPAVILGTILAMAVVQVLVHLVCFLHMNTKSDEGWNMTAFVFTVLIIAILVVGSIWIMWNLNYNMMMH
T1 sequence (P0ABJ9 whole entry): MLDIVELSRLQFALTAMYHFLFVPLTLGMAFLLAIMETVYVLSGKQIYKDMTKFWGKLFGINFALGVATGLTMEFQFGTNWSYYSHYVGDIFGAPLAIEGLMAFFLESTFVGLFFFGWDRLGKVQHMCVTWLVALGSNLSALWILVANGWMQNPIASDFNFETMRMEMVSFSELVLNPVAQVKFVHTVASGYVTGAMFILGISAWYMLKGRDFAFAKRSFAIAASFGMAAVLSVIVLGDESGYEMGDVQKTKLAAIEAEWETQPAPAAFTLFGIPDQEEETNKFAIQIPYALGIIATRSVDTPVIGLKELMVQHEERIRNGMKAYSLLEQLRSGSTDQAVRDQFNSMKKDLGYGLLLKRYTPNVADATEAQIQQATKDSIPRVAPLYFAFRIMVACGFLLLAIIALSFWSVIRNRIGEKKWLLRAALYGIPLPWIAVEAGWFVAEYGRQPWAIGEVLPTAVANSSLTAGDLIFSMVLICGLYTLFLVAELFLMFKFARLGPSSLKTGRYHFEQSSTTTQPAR
T1 sequence (P0ABK2 whole entry partner): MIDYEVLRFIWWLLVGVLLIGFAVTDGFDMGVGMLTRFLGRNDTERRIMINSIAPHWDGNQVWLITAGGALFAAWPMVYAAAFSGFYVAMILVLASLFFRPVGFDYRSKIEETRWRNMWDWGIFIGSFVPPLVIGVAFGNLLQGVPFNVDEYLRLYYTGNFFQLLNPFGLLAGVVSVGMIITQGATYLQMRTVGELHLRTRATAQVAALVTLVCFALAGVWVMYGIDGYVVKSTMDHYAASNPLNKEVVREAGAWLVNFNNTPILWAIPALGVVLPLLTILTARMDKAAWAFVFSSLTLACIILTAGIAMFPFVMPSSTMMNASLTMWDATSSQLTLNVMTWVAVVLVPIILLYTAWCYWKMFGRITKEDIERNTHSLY
T1 sequence (P56100 whole entry partner): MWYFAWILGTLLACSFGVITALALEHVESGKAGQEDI
T1 sequence (A5A618 whole entry partner): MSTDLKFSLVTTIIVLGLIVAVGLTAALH
T2 sequence (P26459 whole entry): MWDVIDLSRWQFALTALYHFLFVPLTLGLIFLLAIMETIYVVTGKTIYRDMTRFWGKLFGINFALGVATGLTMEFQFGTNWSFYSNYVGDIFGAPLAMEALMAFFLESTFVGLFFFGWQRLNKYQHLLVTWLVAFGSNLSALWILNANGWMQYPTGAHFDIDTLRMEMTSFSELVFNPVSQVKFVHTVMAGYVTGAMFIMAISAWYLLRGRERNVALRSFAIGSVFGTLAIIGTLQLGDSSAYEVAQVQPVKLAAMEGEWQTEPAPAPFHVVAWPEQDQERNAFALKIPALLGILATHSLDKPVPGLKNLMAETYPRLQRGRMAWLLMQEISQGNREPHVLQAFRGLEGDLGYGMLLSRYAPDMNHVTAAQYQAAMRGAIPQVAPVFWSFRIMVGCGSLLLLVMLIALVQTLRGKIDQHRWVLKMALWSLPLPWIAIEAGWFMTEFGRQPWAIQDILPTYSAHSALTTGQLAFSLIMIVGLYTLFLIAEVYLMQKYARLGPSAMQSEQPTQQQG
T2 sequence (P26458 whole entry partner): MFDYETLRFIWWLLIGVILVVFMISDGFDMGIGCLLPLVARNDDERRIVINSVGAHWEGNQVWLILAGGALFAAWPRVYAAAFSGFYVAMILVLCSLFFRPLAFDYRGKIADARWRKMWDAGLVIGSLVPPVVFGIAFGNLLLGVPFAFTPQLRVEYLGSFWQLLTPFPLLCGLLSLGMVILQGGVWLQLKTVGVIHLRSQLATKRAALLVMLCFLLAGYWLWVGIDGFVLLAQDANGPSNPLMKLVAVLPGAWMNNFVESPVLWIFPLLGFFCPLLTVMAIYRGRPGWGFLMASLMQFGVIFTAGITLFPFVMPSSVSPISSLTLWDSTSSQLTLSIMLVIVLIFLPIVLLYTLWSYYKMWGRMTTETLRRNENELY
T2 sequence (P24244 whole entry partner): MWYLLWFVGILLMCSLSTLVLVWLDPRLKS

In the case of `[C-]#[O+]` [CO, Carbon monoxide], the “inhibition of O2 consumption” value ([1]; 96.3 μM CO added at [O2] = 100 μM, bd-I-only cells) is reported as 11.6 ± 1.1%, the “maximum inhibition percentage of respiration” value (“maximum inhibition percentage” below) [1, 4] is reported as 39.6 ± 4.5% and the “maximum inhibition percentage” value [1, 5] is reported as 18.0 ± 7.8%. For the same compound, the “maximum inhibition percentage” value [1, 6] was 9.7 ± 4.9%, the “inhibition of O2 consumption” value ([2]; 96.3 μM CO added at [O2] = 100 μM, bd-II-only cells) was 43.3 ± 7.6% and the “maximum inhibition percentage” value [2, 4] was 59.3 ± 11.5%. The “maximum inhibition percentage” value [2, 5] was 50.0 ± 3.6%, the “maximum inhibition percentage” value [2, 6] was 47.0 ± 6.0% and the IC50 ([2]; CO added at [O2] = 50 μM) was 88.6 ± 9.3 µM. For the same compound, the IC50 ([2]; CO added at [O2] = 100 μM) was 170 ± 15 µM, the IC50 ([2]; CO added at [O2] = 200 μM) was 230 ± 12 µM and the Ki ([2]; estimated from IC50 values at different [O2], assuming competitive inhibition, Km(O2) 2 µM) was 2.5 ± 0.2 µM. The “inhibition of O2 consumption” value ([3]; 96.3 μM CO added at [O2] = 100 μM, bo3-only cells) was 44.3 ± 1.5%, the “maximum inhibition percentage” value [3, 4] was 85.6 ± 3.7% and the “maximum inhibition percentage” value [3, 5] was 65.3 ± 17.2%. The “maximum inhibition percentage” value [3, 6] was 39.7 ± 11.5% and the IC50 ([3]; CO added at [O2] = 50 μM, read-out: apparent IC50) was 66.5 ± 10 µM.
